# According to PubChem BioAssay (NCI):
#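 Cultured in 96-well plates, cells were exposed to test compound for 48 hours across five concentrations. GI50 is the concentration that inhibits growth by half. At the TGI there is no net growth.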
# How the values were obtained:
# Assay in all cases: inhibition of tumour cell growth, NCI panel, 48 h
# OVCAR-5 ovarian = test system: OVCAR-5 ovarian
# RXF 393 renal = test system: RXF 393 renal
# DMS 114 small cell lung = test system: DMS 114 small cell lung
# SF-268 CNS = test system: SF-268 CNS
# KM20L2 colon = test system: KM20L2 colon
# 786-0 renal = test system: 786-0 renal
# NCI-H23 lung = test system: NCI-H23 lung
# SK-MEL-5 melanoma = test system: SK-MEL-5 melanoma
# UACC-257 melanoma = test system: UACC-257 melanoma
# MDA-MB-435 = test system: MDA-MB-435
SMILES,TGI (OVCAR-5 ovarian),TGI (RXF 393 renal),TGI (DMS 114 small cell lung),TGI (SF-268 CNS),TGI (KM20L2 colon),TGI (786-0 renal),TGI (NCI-H23 lung),TGI (SK-MEL-5 melanoma),TGI (UACC-257 melanoma),GI50 (OVCAR-5 ovarian),GI50 (RXF 393 renal),GI50 (SF-268 CNS),GI50 (UACC-257 melanoma),GI50 (KM20L2 colon),GI50 (786-0 renal),GI50 (NCI-H23 lung),GI50 (SK-MEL-5 melanoma),TGI (MDA-MB-435)
COc1cccc2c(SCC(=O)Nc3ccccc3-c3ccccc3NC(=O)CSc3c4ccccc4nc4c(OC)cccc34)c3ccccc3nc12,> 100 µM,> 100 µM,> 100 µM,> 100 µM,> 100 µM,> 100 µM,> 100 µM,> 100 µM,,,,,,,,,,
O=C(O)/C(Cl)=C(Cl)/C=N/NC(=O)c1cc2ccccc2cc1O,61.5 µM,,51.5 µM,> 100 µM,87.2 µM,> 100 µM,41.2 µM,24.6 µM,65.6 µM,,,,,,,,,
Cc1ccc(C)c(NC(=O)C(=O)C2C(=O)N(c3ccccc3)N=C2N)c1 (stereo not drawn),> 100 µM,> 100 µM,,> 100 µM,> 100 µM,> 100 µM,> 100 µM,> 100 µM,> 100 µM,,,,,,,,,
COc1ccc(NC(=O)c2oc3cc(O)ccc3c(=O)c2C)c([N+](=O)[O-])c1,> 100 µM,> 100 µM,> 100 µM,> 100 µM,> 100 µM,> 100 µM,> 100 µM,> 100 µM,> 100 µM,,,,,,,,,
CCCCCN(CCCCC)C(=O)[C@H](CCC(=O)O)NC(=O)c1cc2ccccc2[nH]1,> 100 µM,93.5 µM,> 100 µM,> 100 µM,> 100 µM,> 100 µM,85.8 µM,,> 100 µM,,,,,,,,,
C[C@]12Cc3conc3C(O)=C1CC[C@@H]1C2CC[C@@]2(C)C1CC[C@]2(C)O (stereo partly drawn),92.2 µM,44 µM,43.4 µM,> 100 µM,42.7 µM,> 100 µM,49.9 µM,30.7 µM,80.4 µM,,,,,,,,,
COC(=O)C(=O)C(C(C)=O)C(=O)NCc1ccccc1 (stereo not drawn),> 100 µM,> 100 µM,> 100 µM,> 100 µM,> 100 µM,> 100 µM,> 100 µM,> 100 µM,> 100 µM,,,,,,,,,
CC(=O)[CH-]C(=O)c1ccccc1.CC(=O)[CH-]C(=O)c1ccccc1.CC[C@H](/C=C/C(C)[C@H]1CCC2[C@@H]3CC=C4C[C@@H]([O-])CC[C@]4(C)C3CC[C@@]21C)C(C)C.CC[C@H](/C=C/C(C)[C@H]1CCC2[C@@H]3CC=C4C[C@@H]([O-])CC[C@]4(C)C3CC[C@@]21C)C(C)C.Cl.[Ti+4] (stereo partly drawn),> 25 µM,> 25 µM,,> 25 µM,> 25 µM,> 25 µM,> 25 µM,> 25 µM,> 25 µM,> 25 µM,> 25 µM,> 25 µM,> 25 µM,> 25 µM,23 µM,> 25 µM,> 25 µM,
N#CC(C(=N/O)/C(=N\O)C(C#N)c1ccccc1)c1ccccc1 (stereo not drawn),> 100 µM,> 100 µM,> 100 µM,> 100 µM,> 100 µM,> 100 µM,> 100 µM,> 100 µM,> 100 µM,,,,,,,,,
Cc1cc(Cl)ccc1N=C1NC(=O)C(CC(=O)Nc2cccc(C)c2C)S1 (stereo not drawn),> 100 µM,,66.6 µM,> 100 µM,87.2 µM,47.9 µM,52.1 µM,41.4 µM,> 100 µM,,,,,,,,,
O=C1NC2(CCCCC2)C2CCCCC=C12 (stereo not drawn),> 100 µM,> 100 µM,> 100 µM,> 100 µM,,> 100 µM,> 100 µM,> 100 µM,> 100 µM,,,,,,,,,
CCCCCCCCC(C)CCCCCCCCC(=O)OCC(COP(=O)([O-])OCC[N+](C)(C)C)OC(=O)CCCCCCCCC(C)CCCCCCCC (stereo not drawn),> 100 µM,> 100 µM,> 100 µM,> 100 µM,> 100 µM,> 100 µM,> 100 µM,> 100 µM,> 100 µM,,,,,,,,,
Nn1c(-c2cccc(Cl)c2)nc2ccccc2c1=O,> 100 µM,,> 100 µM,> 100 µM,> 100 µM,> 100 µM,> 100 µM,> 100 µM,> 100 µM,,,,,,,,,
COC(=O)C12C34C=CC5(CCC6(C=CC1(CC3)O6)C52C(=O)OC)O4 (stereo not drawn),> 100 µM,> 100 µM,,> 100 µM,> 100 µM,> 100 µM,> 100 µM,,> 100 µM,,,,,,,,,
O=C(COC(=O)c1cccc2c(=O)c3ccccc3[nH]c12)Nc1ccc(Cl)cc1,,66 µM,> 100 µM,> 100 µM,> 100 µM,> 100 µM,64.2 µM,> 100 µM,> 100 µM,,,,,,,,,
C[C@]12CC(C=O)C(=O)C(O)=C1CC[C@@H]1C2CC[C@@]2(C)C1CC[C@]2(C)O (stereo partly drawn),32.6 µM,37.3 µM,33.4 µM,66.1 µM,52.9 µM,44.4 µM,46.4 µM,34.5 µM,75.5 µM,,,,,,,,,
C=CC(=O)Nc1ccccc1CC(c1c[nH]c2ccccc12)c1c[nH]c2ccccc12,,,30.1 µM,43.1 µM,,36.2 µM,38.2 µM,33.4 µM,40.5 µM,,,,,,,,,
COc1c(-c2ccc3c(c2)OCO3)oc2cc(O)cc(O)c2c1=O,> 100 µM,42.5 µM,,> 100 µM,,> 100 µM,> 100 µM,> 100 µM,> 100 µM,,,,,,,,,> 100 µM
CC(C)N1C(C)[C@@H](c2ccccc2)O[P@@]1(=O)CC1=CCCCC1 (stereo partly drawn),> 100 µM,> 100 µM,> 100 µM,> 100 µM,> 100 µM,> 100 µM,> 100 µM,> 100 µM,> 100 µM,,,,,,,,,
C=C(C)C1CCC2=CC(CC3(C)OC3C3=CC(C(=O)OC)=C(C1)O3)OC2=O (stereo not drawn),> 100 µM,> 100 µM,,> 100 µM,,> 100 µM,> 100 µM,> 100 µM,> 100 µM,,,,,,,,,> 100 µM
O=C(NCCCl)Nc1ccccc1,> 100 µM,> 100 µM,,> 100 µM,,> 100 µM,> 100 µM,> 100 µM,> 100 µM,,,,,,,,,> 100 µM
CN(CCCN1C(=O)c2cccc3cc([N+](=O)[O-])cc(c23)C1=O)CCN(C)CCCN1C(=O)c2cccc3cc([N+](=O)[O-])cc(c23)C1=O,> 39.3 µM,> 39.3 µM,> 39.3 µM,> 39.3 µM,> 39.3 µM,> 39.3 µM,> 39.3 µM,> 39.3 µM,> 39.3 µM,,,,,,,,,
CCOC(=O)/C(C#N)=C\Sc1ccccc1,58.6 µM,35.1 µM,33.9 µM,28.9 µM,51.9 µM,29.1 µM,> 100 µM,> 100 µM,> 100 µM,,,,,,,,,
